Measured values as given in US20060002887A1, “Ionene oligomers and polymers” (Genzyme Corporation, priority 2002, published 2006).
≈ marks a conversion by molar mass, not a printed value.

Tests used:
[1] = tested on: A-549 lung epithelial cell line; test: Alamar Blue in vitro cytotoxicity; format: cell-based
Protocol: The oligomers were screened for in vitro cytotoxicity following 18-24 hr exposure using the metabolic indicator Alamar Blue™ (Alamar Biosciences, Sacramento, Calif.) against the A-549 lung epithelial cell line according to the manufacturer's instructions. Briefly, flat-bottom polystyrene microtiter plates were seeded with 2×10^4 cells in Ham's F-12 medium (Invitrogen) containing 10% fetal bovine serum (FBS) and were incubated ˜48 hr at 37° C., until cells were confluent. Medium was then aspirated off and replaced with medium lacking FBS. The oligomers were added to the first row (final concentration 5 mg/ml) and serial 2-fold dilutions were prepared across the plate. Plates were incubated 18-24 hr at 37° C.; medium containing test compounds was aspirated off, wells were washed once with PBS and fresh medium (lacking FBS and phenol red) was added. Alamar Blue™ was added (final concentration 30%); cells were incubated 4 hr and absorbance was read at 570 nm. The IC50 was then calculated.
(§1) Poly(trimethylene dipyridine-alt-5-oxanonane) having a molecular weight 0.5-1 kDa was tested in A-549 lung epithelial cells to determine its IC50 value in comparison with tobramycin, a conventional antibiotic. In addition, the minimum inhibitory concentrations for the two compounds were determined in vitro for a number of bacterial strains and species. The results are as shown below, where all concentrations are expressed as μg/mL: […]

[2] = tested on: Stenotrophomonas maltophilia; test: MIC broth dilution assay; format: cell-based; settings: S. maltophilia, read-out: minimum inhibitory concentration
Protocol: (§2) Both about 1-10 kDa fractions of poly(trimethylene dipyridine-alt-octane chloride) (TMDP-C8) and about 1.2 kDa poly(trimethylene dipyridine-alt-2,7-dihydroxyoctane chloride) (TMDP-C8(OH)2) have broad, though not identical antimicrobial activity.
as §1

Pseudomonas aeruginosa = test: MIC broth dilution assay; format: cell-based
Protocol: as §2, §1

Burkholderia cepacia = test: MIC broth dilution assay; format: cell-based; settings: B. cepacia, read-out: minimum inhibitory concentration
Protocol: as §2, §1

Staphylococcus aureus = test: MIC broth dilution assay; format: cell-based; settings: S. aureus, read-out: minimum inhibitory concentration
Protocol: as §2, §1

P. aeruginosa = settings: within 11 passages, published studies; cited from earlier work
MRSA = settings: over 15 passages, published studies; cited from earlier work
[3] = design: species or system pigs; settings: pig, in vivo
Protocol: The non-substituted C8-containing compound TMDP-C8 (about 1-10 kDa) was tested at 10 mg/ml for its ability to reduce S. aureus infections introduced into dermal wounds in pigs.

Compound: NC[C@H]1O[C@H](O[C@H]2[C@H](O)[C@@H](O[C@H]3O[C@H](CO)[C@@H](O)[C@H](N)[C@H]3O)[C@H](N)C[C@@H]2N)[C@H](N)C[C@@H]1O [Tobramycin, tobramycin]
- IC50 ([1]; Homo sapiens, A549, A-549 lung epithelial cells): 5000 µg/mL (≈ 10700 µM)
- MIC [2]: 25 µg/mL (≈ 53.5 µM)
- minimum inhibitory concentration (Pseudomonas aeruginosa; P. aeruginosa PA01): 0.39 µg/mL (≈ 0.834 µM)
- MIC (Pseudomonas aeruginosa; Pseudomonas aeruginosa, P. aeruginosa G38, read-out: minimum inhibitory concentration): 0.39 µg/mL (≈ 0.834 µM)
- MIC (Burkholderia cepacia): > 50 µg/mL
- MIC (Staphylococcus aureus): 0.195 µg/mL (≈ 0.417 µM)

Compound: CCn1cc(C(=O)O)c(=O)c2cc(F)c(N3CCNCC3)cc21 [norfloxacin]
- rise of MIC (P. aeruginosa): 10 fold
- rise of MIC (MRSA): 85 fold

Compound: gentamicin
- rise of MIC (P. aeruginosa): 190 fold

Compound: poly(trimethylene dipyridine-alt-octane chloride) [TMDP-C8]
- effect on wound healing [3]: did not inhibit or retard healing

Compound: poly(trimethylene dipyridine-alt-octane) [TMDP-C8 1-3k]
- IC50, In vitro Cytotoxicity of Compounds Tested in First Rat Lung Study [1]: 322 µg/mL

Compound: poly(trimethylene dipyridine-alt-octane) [TMDP-C8 >1k]
- IC50, In vitro Cytotoxicity of Compounds Tested in First Rat Lung Study [1]: 30 µg/mL
